In paper PMC6219514, “Structural basis of Gip1 for cytosolic sequestration of G protein in wide-range chemotaxis” (Nature Communications, 2018):

Molecular target: T1, GFP-Flag-tagged Gip1 (Gip1-GFPF) in complex with G proteins (Dictyostelium discoideum, UniProt Q55BQ2)
T1 construct: gene DDB_G0271086; full-length Gip1 (1-310) with GFP-Flag tag, expressed in Dictyostelium cells, on anti-Flag beads with co-purified G proteins; Gγ geranylgeranylated at Cys66
Experiment: competitive dissociation of G proteins from bead-bound Gip1, immunoblot
Assay type: biochemical
Details: CHAPS buffer pH 7.5, 4 °C, 1 h, 3.5% methanol

T1 sequence (Q55BQ2 entry or part of it, one chain of several): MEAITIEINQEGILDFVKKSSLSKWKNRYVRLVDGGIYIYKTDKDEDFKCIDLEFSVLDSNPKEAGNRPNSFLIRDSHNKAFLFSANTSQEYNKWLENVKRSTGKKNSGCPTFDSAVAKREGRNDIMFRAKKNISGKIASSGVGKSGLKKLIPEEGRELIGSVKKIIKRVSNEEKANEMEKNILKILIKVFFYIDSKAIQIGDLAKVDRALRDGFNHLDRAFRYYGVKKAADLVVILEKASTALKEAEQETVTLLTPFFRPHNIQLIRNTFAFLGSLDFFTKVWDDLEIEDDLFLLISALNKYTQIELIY

Row | Structure (SMILES) | relative band intensity (0-100 µM, competitive with geranylgeranylated Gγ) | relative band intensity (100 µM)
1 | CC(C)=CCC/C(C)=C/CC/C(C)=C/CC/C(C)=C/COP(=O)(O)OP(=O)(O)O [GG-pyroP, geranylgeranyl pyrophosphate] | the complex formation was competitively inhibited by the addition of geranylgeranyl pyrophosphate | –
2 | CC(C)=CCC/C(C)=C/CC/C(C)=C/COP(=O)(O)OP(=O)(O)O [farnesyl pyrophosphate] | – | Farnesyl pyrophosphate showed slight impairment of the Gip1–G protein complex
